Some test systems named below: SK-MEL-2 melanoma; SK-MEL-5 melanoma; OVCAR-8 ovarian; SW-620 colon; A549 NSCLC; SK-MEL-28 melanoma; SF-295 CNS; K-562 leukemia; ACHN renal; LOX IMVI melanoma.
What all share (assay): NCI tumour cell line growth inhibition, 48 h

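Step 1: Grow cells in 96-well plates. Step 2: Expose to compound for 48 hours at 5 concentrations. Step 3: Interpolate endpoints linearly; if unreached, use highest concentration. TGI is the concentration that stops growth completely.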 *1 amine or outer side, *2 acyl side, *3 side chain or, on linkers, in order; H or OH if unused. Where a SMILES comes first, the peptide text is derived from it. Bridges are numbered along the chain shown (N, C = ends). Roman numbers before positions name the chains, in order. [ ]: non-standard residue; d: D form. Actinocin(9to1) = Cc1c2oc3c(C)ccc(C(=O)[*:1])c3nc-2c(C(=O)[*:2])c(N)c1=O; NMeV = CN[CH](C(=O)O)C(C)C; Sar = CNCC(=O)O A value given as a limit tells only on which side of the number the result lay.

As for `CC1Cc2c(cc(N)nc2Br)NC1=O` (stereo not given), the TGI in the assay with SK-MEL-2 melanoma, with SK-MEL-5 melanoma, in the assay with OVCAR-8 ovarian, with SW-620 colon, in the assay on A549 NSCLC and with SK-MEL-28 melanoma was over 100 µM in each case. The TGI in the assay with SF-295 CNS, with K-562 leukemia, with ACHN renal and in the assay with LOX IMVI melanoma was over 100 µM in each case.
For `COC(=O)NC(Nc1ccc(C)cc1)(C(F)(F)F)C(F)(F)F`, the TGI in the assay on SK-MEL-2 melanoma, in the assay on SK-MEL-5 melanoma, in the assay with OVCAR-8 ovarian, in the assay with SW-620 colon, in the assay with A549 NSCLC and in the assay on SK-MEL-28 melanoma was over 100 µM each time. Besides, the TGI in the assay on SF-295 CNS, with K-562 leukemia, in the assay with ACHN renal and in the assay with LOX IMVI melanoma was over 100 µM each time.
`Cc1cn([C@@H]2C[C@](C)(CO)N(C)O2)c(=O)[nH]c1=O`: the TGI with SK-MEL-2 melanoma, in the assay with SK-MEL-5 melanoma, in the assay with OVCAR-8 ovarian, in the assay with SW-620 colon, with A549 NSCLC and in the assay with SK-MEL-28 melanoma was over 100 µM each time. Besides, the TGI with SF-295 CNS, in the assay on K-562 leukemia, in the assay with ACHN renal and in the assay with LOX IMVI melanoma was over 100 µM in each case.
On to `O=C(c1ccccc1)c1ccc2nc(-c3c(Cl)c(Cl)c(Cl)c(Cl)c3C(=O)Nc3ccco3)[nH]c2c1`, for which the TGI in the assay on SK-MEL-2 melanoma is 80.4 µM; with SK-MEL-5 melanoma, over 100 µM; in the assay on OVCAR-8 ovarian, over 100 µM; in the assay on SW-620 colon, over 100 µM; in the assay with A549 NSCLC, over 100 µM; in the assay on SK-MEL-28 melanoma it was over 100 µM. The TGI in the assay with SF-295 CNS, in the assay with K-562 leukemia, with ACHN renal and in the assay on LOX IMVI melanoma was over 100 µM throughout.
For `O=C1Sc2cc3ccccc3cc2C(=O)Sc2cc3ccccc3cc21`, the TGI with SK-MEL-2 melanoma is over 66.5 µM; with SK-MEL-5 melanoma it was over 100 µM; in the assay with OVCAR-8 ovarian it was over 89.2 µM; with SW-620 colon it was over 100 µM; in the assay on A549 NSCLC it was over 100 µM; with SK-MEL-28 melanoma it was over 85.4 µM. Also, the TGI was over 100 µM in the assay with SF-295 CNS, over 100 µM in the assay on K-562 leukemia, over 63.6 µM in the assay on ACHN renal and 48.1 µM in the assay with LOX IMVI melanoma.
`CCOC(=O)c1nc2ccccc2nc1Nc1ccc(F)cc1`: the TGI was over 83.4 µM in the assay with SK-MEL-2 melanoma; over 100 µM with SK-MEL-5 melanoma; 32 µM with OVCAR-8 ovarian; over 100 µM in the assay with SW-620 colon; over 100 µM in the assay on A549 NSCLC; over 100 µM in the assay on SK-MEL-28 melanoma. Further, the TGI with SF-295 CNS is 28.9 µM; with K-562 leukemia, over 100 µM; in the assay with ACHN renal, over 93.6 µM; in the assay on LOX IMVI melanoma, over 100 µM.
In the case of `OCC1c2ccccc2-n2nc(-c3ccccc3)c(O)c21` (stereo not given), the TGI in the assay on SK-MEL-2 melanoma is 43.9 µM; in the assay on SK-MEL-5 melanoma, over 100 µM; with OVCAR-8 ovarian, 37.6 µM; with SW-620 colon it was 67.3 µM; with A549 NSCLC, over 100 µM; with SK-MEL-28 melanoma, over 100 µM. Further, the TGI with SF-295 CNS was over 100 µM; with K-562 leukemia, 53 µM; with ACHN renal it was 30.6 µM; in the assay with LOX IMVI melanoma, 47 µM.
For the compound `CN(c1ccc(Cl)cc1)S(=O)(=O)c1ccccc1`, the TGI was over 100 µM in the assay with SK-MEL-2 melanoma; 47 µM in the assay on SK-MEL-5 melanoma; over 100 µM in the assay with OVCAR-8 ovarian; over 100 µM in the assay on SW-620 colon; over 100 µM in the assay on A549 NSCLC; over 100 µM in the assay with SK-MEL-28 melanoma. Moreover, the TGI in the assay with SF-295 CNS, in the assay with K-562 leukemia, in the assay with ACHN renal and in the assay on LOX IMVI melanoma was over 100 µM each time.
As for `C=C1CC(Cn2cc(Br)c(=O)[nH]c2=O)(c2ccc(Br)cc2)OC1=O` (stereo not given), the TGI is 3.74 µM with SK-MEL-2 melanoma; 7.5 µM with SK-MEL-5 melanoma; over 100 µM with OVCAR-8 ovarian; 3.79 µM in the assay with SW-620 colon; 29 µM in the assay on A549 NSCLC; 16.7 µM with SK-MEL-28 melanoma. The TGI in the assay on SF-295 CNS is 31 µM; in the assay with K-562 leukemia, over 100 µM; in the assay with ACHN renal, 9.4 µM; in the assay with LOX IMVI melanoma, 3.64 µM.
As for `O=C1/C(=C/c2cccs2)N=C(c2ccccc2)N1c1nc2ccccc2s1`, the TGI in the assay on SK-MEL-2 melanoma, in the assay with SK-MEL-5 melanoma, with OVCAR-8 ovarian, in the assay with SW-620 colon, in the assay with A549 NSCLC and in the assay with SK-MEL-28 melanoma was over 100 µM in each case. Besides, the TGI in the assay with SF-295 CNS, in the assay on K-562 leukemia, with ACHN renal and with LOX IMVI melanoma was over 100 µM each time.
For `Cn1c(=O)[nH]n(-c2ccc3ccccc3c2)c1=O`, the TGI in the assay with SK-MEL-2 melanoma, in the assay with SK-MEL-5 melanoma, in the assay with OVCAR-8 ovarian, in the assay with SW-620 colon, in the assay on A549 NSCLC and in the assay with SK-MEL-28 melanoma was over 100 µM each time. The TGI with SF-295 CNS, in the assay with K-562 leukemia, in the assay with ACHN renal and in the assay with LOX IMVI melanoma was over 100 µM each time.
For the compound `CCOC(=O)/C(C1=N[C@H](C(=O)OCC)CS1)=C(\O)c1ccccc1`, the TGI in the assay on SK-MEL-2 melanoma, in the assay with SK-MEL-5 melanoma, with OVCAR-8 ovarian, in the assay with SW-620 colon, with A549 NSCLC and in the assay with SK-MEL-28 melanoma was over 100 µM in each case. The TGI in the assay with SF-295 CNS, in the assay with K-562 leukemia, in the assay on ACHN renal and with LOX IMVI melanoma was over 100 µM in each case.
For the compound `COc1c(-c2ccc(F)cc2)oc2cc(O)cc(O)c2c1=O`, the TGI in the assay with SK-MEL-2 melanoma is 64.3 µM; with SK-MEL-5 melanoma, 30.1 µM; with OVCAR-8 ovarian, 69.4 µM; with SW-620 colon, over 100 µM; in the assay with A549 NSCLC, over 100 µM; with SK-MEL-28 melanoma it was over 100 µM. Moreover, the TGI was 83.9 µM in the assay on SF-295 CNS, over 100 µM in the assay on K-562 leukemia, 93.4 µM in the assay with ACHN renal and 54.5 µM in the assay with LOX IMVI melanoma.
Take `CC(C)CCCC(C)[C@H]1CC[C@H]2NCCCC[C@]12C` (stereo not given in full): the TGI with SK-MEL-2 melanoma is 7.82 µM; with SK-MEL-5 melanoma it was 3.39 µM; in the assay on OVCAR-8 ovarian, over 25.4 µM; with SW-620 colon, 9.84 µM; in the assay on A549 NSCLC it was 31.7 µM; in the assay with SK-MEL-28 melanoma, 5.57 µM. For the same compound, the TGI in the assay with SF-295 CNS amounted to 5.2 µM; in the assay on K-562 leukemia it was 6.61 µM; with ACHN renal it was 4.78 µM; in the assay with LOX IMVI melanoma it was 4.23 µM.
Regarding `CC(=O)CCCCCCCCCCCC[C@@H]1CC[C@H](C)[C@H](O)N1`, the TGI with SK-MEL-2 melanoma, in the assay on SK-MEL-5 melanoma, in the assay with OVCAR-8 ovarian, with SW-620 colon, with A549 NSCLC and in the assay with SK-MEL-28 melanoma was over 100 µM throughout. Moreover, the TGI with SF-295 CNS, in the assay on K-562 leukemia, with ACHN renal and in the assay with LOX IMVI melanoma was over 100 µM each time.
On to `Cc1ccc(S(=O)(=O)CC2CCCn3c2c(C#N)c2ccccc23)cc1` (stereo not given), for which the TGI in the assay on SK-MEL-2 melanoma, in the assay on SK-MEL-5 melanoma, in the assay with OVCAR-8 ovarian, in the assay on SW-620 colon, with A549 NSCLC and in the assay with SK-MEL-28 melanoma was over 100 µM throughout. The TGI in the assay on SF-295 CNS, with K-562 leukemia, in the assay with ACHN renal and with LOX IMVI melanoma was over 100 µM throughout.
For `O=C1c2ccccc2C2(c3ccc(Cl)cc3)N[C@@H]3CCCC[C@@H]3N12` (stereo not given in full), the TGI with SK-MEL-2 melanoma, in the assay with SK-MEL-5 melanoma, in the assay on OVCAR-8 ovarian, with SW-620 colon, in the assay with A549 NSCLC and with SK-MEL-28 melanoma was over 100 µM in each case. Besides, the TGI in the assay on SF-295 CNS, in the assay with K-562 leukemia, with ACHN renal and in the assay on LOX IMVI melanoma was over 100 µM throughout.
Regarding `Cc1c2oc3c(C)ccc(C(=O)NC4C(=O)NC(Cc5ccc(O)cc5)C(=O)N5CCCC5C(=O)N(C)CC(=O)N(C)C(C(C)C)C(=O)OC4C)c3nc-2c(C(=O)NC2C(=O)NC(Cc3ccc(O)cc3)C(=O)N3CCCC3C(=O)N(C)CC(=O)N(C)C(C(C)C)C(=O)OC2C)c(N)c1=O` (stereo not given) (I: TYP[Sar][NMeV] / II: TYP[Sar][NMeV]; ester I:1-I:C, II:1-II:C; linker I:N-II:N via Actinocin(9to1); configuration not given here), the TGI in the assay with SK-MEL-2 melanoma is over 43.6 µM; in the assay with SK-MEL-5 melanoma, over 86.1 µM; with OVCAR-8 ovarian, over 100 µM; with SW-620 colon it was over 100 µM; in the assay on A549 NSCLC, over 100 µM; with SK-MEL-28 melanoma it was over 87 µM. Also, the TGI with SF-295 CNS was over 54.6 µM; in the assay on K-562 leukemia it was over 100 µM; with ACHN renal, over 100 µM; in the assay with LOX IMVI melanoma it was 19.9 µM.
As to `COCCN(C(=O)c1ccccc1)C1CCC(=O)c2[nH]c3ccccc3c21` (stereo not given), the TGI was found to be 17.8 µM in the assay on SK-MEL-2 melanoma; 20.2 µM in the assay on SK-MEL-5 melanoma; 21.3 µM with OVCAR-8 ovarian; 23.3 µM in the assay on SW-620 colon; 31.2 µM with A549 NSCLC; 16 µM in the assay with SK-MEL-28 melanoma. Besides, the TGI with SF-295 CNS is over 56.8 µM; with K-562 leukemia, 18.3 µM; in the assay on ACHN renal, 30.4 µM; in the assay on LOX IMVI melanoma, over 39.4 µM.

Source of the values: PubChem BioAssay (NCI).
